Results taken from patent US9902702B2, “Spirocycloheptanes as inhibitors of rock” (BRISTOL-MYERS SQUIBB COMPANY, priority 2014, dated 2018).

These molecules were tested against ROCK2 (Homo sapiens, UniProt O75116) (assay: ROCK assay: phosphorylation of FITC peptide substrate, LABCHIP 3000 mobility shift). Settings: 5 μM ATP, 1.5 μM peptide substrate; read-out: ROCK2 Activity (ROCK IC50 range).
Assay type: biochemical
Method in brief: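 Rho kinase variant phosphorylates 1.5 μM FITC-AHA-AKRRRLSSLRA-OH with 5 μM ATP in 20 mM HEPES pH 7.5, 20 mM MgCl2, 0.015% Brij-35, 4 mM DTT, DMSO <2%. EDTA stops the reaction, and phospho and non-phospho peptides are resolved by LabChip 3000 mobility shift. IC50 from dose-response curve fit.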

ROCK2, sequence (O75116 whole entry, species assumed): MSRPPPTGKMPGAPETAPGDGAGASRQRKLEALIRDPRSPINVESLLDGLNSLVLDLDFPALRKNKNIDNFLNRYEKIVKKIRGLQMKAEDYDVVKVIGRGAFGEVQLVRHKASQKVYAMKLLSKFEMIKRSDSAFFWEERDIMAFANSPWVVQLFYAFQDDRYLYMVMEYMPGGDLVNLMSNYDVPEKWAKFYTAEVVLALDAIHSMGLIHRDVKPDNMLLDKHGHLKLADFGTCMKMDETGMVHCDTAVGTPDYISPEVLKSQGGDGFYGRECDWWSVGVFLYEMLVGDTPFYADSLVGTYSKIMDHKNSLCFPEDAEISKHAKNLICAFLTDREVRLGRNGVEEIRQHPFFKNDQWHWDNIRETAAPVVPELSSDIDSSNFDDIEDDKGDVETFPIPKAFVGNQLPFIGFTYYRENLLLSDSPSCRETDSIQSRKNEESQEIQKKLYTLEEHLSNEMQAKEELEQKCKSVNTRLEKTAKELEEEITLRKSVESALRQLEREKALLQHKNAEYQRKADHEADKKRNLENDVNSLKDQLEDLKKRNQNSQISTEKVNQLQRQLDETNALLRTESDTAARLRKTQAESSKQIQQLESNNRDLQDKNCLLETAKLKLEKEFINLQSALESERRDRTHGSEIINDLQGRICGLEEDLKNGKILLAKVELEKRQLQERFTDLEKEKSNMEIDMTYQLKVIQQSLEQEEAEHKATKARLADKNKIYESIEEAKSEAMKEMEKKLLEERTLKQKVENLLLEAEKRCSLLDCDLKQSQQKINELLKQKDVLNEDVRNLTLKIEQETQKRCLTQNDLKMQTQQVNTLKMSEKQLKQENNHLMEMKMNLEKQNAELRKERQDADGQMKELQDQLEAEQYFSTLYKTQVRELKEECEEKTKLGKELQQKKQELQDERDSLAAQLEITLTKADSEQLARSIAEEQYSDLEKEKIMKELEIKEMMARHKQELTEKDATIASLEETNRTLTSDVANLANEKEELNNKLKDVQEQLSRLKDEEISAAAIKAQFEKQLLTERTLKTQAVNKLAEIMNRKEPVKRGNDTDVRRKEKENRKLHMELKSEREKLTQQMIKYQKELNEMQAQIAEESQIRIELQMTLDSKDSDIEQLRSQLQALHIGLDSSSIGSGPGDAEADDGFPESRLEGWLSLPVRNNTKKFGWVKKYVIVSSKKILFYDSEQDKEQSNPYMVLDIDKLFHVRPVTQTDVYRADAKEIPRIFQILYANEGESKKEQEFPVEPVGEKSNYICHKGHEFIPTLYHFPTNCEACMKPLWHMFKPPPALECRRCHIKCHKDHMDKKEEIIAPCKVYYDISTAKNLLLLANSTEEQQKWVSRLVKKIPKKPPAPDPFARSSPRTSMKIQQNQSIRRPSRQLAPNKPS

Row | IC50 [nM] | Structure (SMILES)
1 | 0.2 to 2 | Cc1sc(N2CCC(F)(F)C2)nc1C(=O)NC1CC2(C1)CC(c1n[nH]c(=O)c3ccccc13)C2 [Example 54, 2-(3,3-difluoropyrrolidin-1-yl)-5-methyl-N-((aR)-6-(4-oxo-3,4-dihydrophthalazin-1-yl)spiro[3.3]heptan-2-yl)thiazole-4-carboxamide]
2 | 100 to 2100 | CC(C)(C)OC(=O)NCCn1cc(C(=O)NC2CC3(C2)CC(c2n[nH]c(=O)c4ccccc24)C3)cn1 [Example 106, tert-butyl (2-(4-(((aR)-6-(4-oxo-3,4-dihydrophthalazin-1-yl)spiro[3.3]heptan-2-yl)carbamoyl)-1H-pyrazol-1-yl)ethyl)carbamate]
3 | 15.1 to 100 | O=C(N[C@H]1CC2(C1)C[C@H](c1n[nH]c(=O)c3ccccc31)C2)c1cnn2cccc(C3CC3)c12 (stereo partly drawn) [Example 462, 4-cyclopropyl-N-((aR)-6-(4-oxo-3,4-dihydrophthalazin-1-yl)spiro[3.3]heptan-2-yl)pyrazolo[1,5-a]pyridine-3-carboxamide]
4 | 15.1 to 100 | O=C(NC1CC2(C1)CC(c1n[nH]c(=O)c3ccccc13)C2)c1noc(-c2ccc(F)cc2)n1 [Example 118, 5-(4-fluorophenyl)-N-((aR)-6-(4-oxo-3,4-dihydrophthalazin-1-yl)spiro[3.3]heptan-2-yl)-1,2,4-oxadiazole-3-carboxamide]
5 | 5.1 to 15 | Cc1sc(N2CCCC2C(F)(F)F)nc1C(=O)NC1CC2(C1)CC(c1n[nH]c(=O)c3ccccc13)C2 [Example 59, 5-methyl-N-((aR)-6-(4-oxo-3,4-dihydrophthalazin-1-yl)spiro[3.3]heptan-2-yl)-2-((S)-2-(trifluoromethyl)pyrrolidin-1-yl)thiazole-4-carboxamide]
6 | 5.1 to 15 | [H][C@]1(c2n[nH]c(=O)c3ccccc32)C[C@]2(C[C@@H](NC(=O)c3ccc4[nH]cnc4c3)C2)C1 (stereo partly drawn) [Example 308, N-((aR)-6-(4-oxo-3,4-dihydrophthalazin-1-yl)spiro[3.3]heptan-2-yl)-1H-benzo[d] imidazole-5-carboxamide]
7 | 5.1 to 15 | Cc1nn(C)c(C)c1-c1ccc(NC(=O)NC2CC3(C2)CC(c2n[nH]c(=O)c4ccccc24)C3)cc1 [Example 233, 1-((aR)-6-(4-oxo-3,4-dihydrophthalazin-1-yl)spiro[3.3]heptan-2-yl)-3-(4-(1,3,5-trimethyl-1H-pyrazol-4-yl)phenyl)urea]
8 | 100 to 2100 | O=C(NC1CC2(C1)CC(c1n[nH]c(=O)c3ccccc13)C2)c1ccnn1C1CCOCC1 [Example 104, N-((aR)-6-(4-oxo-3,4-dihydrophthalazin-1-yl)spiro[3.3]heptan-2-yl)-1-(tetrahydro-2H-pyran-4-yl)-1H-pyrazole-5-carboxamide]
9 | 2.01 to 5 | [H][C@]1(c2n[nH]c(=O)c3ccccc32)C[C@]2(C[C@@H](NC(=O)c3ccc(-c4cnn(C)c4C(F)(F)F)c(F)c3)C2)C1 (stereo partly drawn) [Example 447, 3-fluoro-4-(1-methyl-5-(trifluoromethyl)-1H-pyrazol-4-yl)-N-((aR)-6-(4-oxo-3,4-dihydrophthalazin-1-yl)spiro[3.3]heptan-2-yl)benzamide]
10 | 5.1 to 15 | [H][C@]1(c2n[nH]c(=O)c3ccccc32)C[C@]2(C[C@@H](NC(=O)c3ccc4cn[nH]c4c3)C2)C1 (stereo partly drawn) [Example 316, N-((aR)-6-(4-oxo-3,4-dihydrophthalazin-1-yl)spiro[3.3]heptan-2-yl)-1H-indazole-6-carboxamide]
11 | 15.1 to 100 | O=C(NC1CC2(C1)CC(c1n[nH]c(=O)c3ccccc13)C2)c1nn(-c2cccc(Cl)c2)c2c1CCNC2=O [Example 288, 1-(3-chlorophenyl)-7-oxo-N-((aR)-6-(4-oxo-3,4-dihydrophthalazin-1-yl)spiro[3.3]heptan-2-yl)-4,5,6,7-tetrahydro-1H-pyrazolo[3,4-c] pyridine-3-carboxamide]
12 | 15.1 to 100 | O=C(Nc1ccc(-c2cnn(C3CCOCC3)c2)cc1)NC1CC2(C1)CC(c1n[nH]c(=O)c3ccccc13)C2 [Example 231, 1-((aR)-6-(4-oxo-3,4-dihydrophthalazin-1-yl)spiro[3.3]heptan-2-yl)-3-(4-(1-(tetrahydro-2H-pyran-4-yl)-1H-pyrazol-4-yl)phenyl)urea]
13 | 5.1 to 15 | Cn1cc(-c2ccc(NC(=O)NC3CC4(C3)CC(c3n[nH]c(=O)c5ccccc35)C4)cc2)cn1 [Example 228, 1-(4-(1-methyl-1H-pyrazol-4-yl)phenyl)-3-((aR)-6-(4-oxo-3,4-dihydrophthalazin-1-yl)spiro[3.3]heptan-2-yl)urea]
14 | 5.1 to 15 | Cc1nc(N2CCC(C#N)C2)sc1C(=O)NC1CC2(C1)CC(c1n[nH]c(=O)c3ccccc13)C2 [Example 39, 2-[(3R)-3-cyanopyrrolidin-1-yl]-4-methyl-N-[(aR)-6-(4-oxo-3,4-dihydrophthalazin-1-yl)spiro[3.3]heptan-2-yl]-1,3-thiazole-5-carboxamide]
15 | 2.01 to 5 | COc1ccc2c(c1)c(C(=O)NC1CC3(C1)CC(c1n[nH]c(=O)c4ccccc14)C3)nn2CC(C)(C)O [Example 61, 1-(2-hydroxy-2-methylpropyl)-5-methoxy-N-((aR)-6-(4-oxo-3,4-dihydrophthalazin-1-yl)spiro[3.3]heptan-2-yl)-1H-indazole-3-carboxamide]
16 | 100 to 2100 | [H][C@]1(c2n[nH]c(=O)c3ccccc32)C[C@]2(C[C@@H](N(CC)C(=O)c3nn(C)c4ccccc34)C2)C1 (stereo partly drawn) [Example 267, N-ethyl-1-methyl-N-((aR)-6-(4-oxo-3,4-dihydrophthalazin-1-yl)spiro[3.3]heptan-2-yl)-1H-indazole-3-carboxamide]
17 | 0.2 to 2 | [H][C@]1(c2n[nH]c(=O)c3ccccc32)C[C@]2(C[C@@H](NC(=O)c3cnc4cc(N(C)CCOC)ccn34)C2)C1 (stereo partly drawn) [Example 397, 7-((2-methoxy-ethyl)(methyl)amino)-N-((aR)-6-(4-oxo-3,4-dihydrophthalazin-1-yl)spiro[3.3]heptan-2-yl)imidazo[1,2-a]pyridine-3-carboxamide]
18 | 2.01 to 5 | O=C(NC1CC2(C1)CC(c1n[nH]c(=O)c3ccccc13)C2)c1cnn2cc(CCC(=O)N3CCOCC3)ccc12 [Example 205, 6-(3-morpholino-3-oxopropyl)-N-((aR)-6-(4-oxo-3,4-dihydrophthalazin-1-yl)spiro[3.3]heptan-2-yl)pyrazolo[1,5-a]pyridine-3-carboxamide]
19 | 15.1 to 100 | CC(C)(O)COc1ccc2c(C(=O)NC3CC4(C3)CC(c3n[nH]c(=O)c5ccccc35)C4)cnn2c1C(N)=O [Example 110, 6-(2-hydroxy-2-methylpropoxy)-N3-((aR)-6-(4-oxo-3,4-dihydrophthalazin-1-yl)spiro[3.3]heptan-2-yl)pyrazolo[1,5-a]pyridine-3,7-dicarboxamide]
20 | 2.01 to 5 | [H][C@]1(c2n[nH]c(=O)c3ccccc32)C[C@]2(C[C@@H](NC(=O)c3cnc4ccc(F)cn34)C2)C1 (stereo partly drawn) [Example 408, 6-fluoro-N-((aR)-6-(4-oxo-3,4-dihydrophthalazin-1-yl)spiro[3.3]heptan-2-yl)imidazo[1,2-a]pyridine-3-carboxamide]
21 | 0.2 to 2 | O=C(NC1CC2(C1)CC(c1n[nH]c(=O)c3ccccc13)C2)c1cnn2cc(-c3nccs3)ccc12 (stereo not drawn) [Example 173, N-((αR)-6-(4-oxo-3,4-dihydrophthalazin-1-yl)spiro[3.3]heptan-2-yl)-6-(thiazol-2-yl)pyrazolo[1,5-α]pyridine-3-carboxamide]
22 | 2.01 to 5 | O=C(NC1CC2(C1)CC(c1n[nH]c(=O)c3ccccc13)C2)c1cnn2cc(OC(F)F)ccc12 [Example 79, 6-(difluoromethoxy)-N-((aR)-6-(4-oxo-3,4-dihydrophthalazin-1-yl)spiro[3.3]heptan-2-yl)pyrazolo[1,5-a]pyridine-3-carboxamide]
23 | 0.2 to 2 | O=C(NC1CC2(C1)CC(c1n[nH]c(=O)c3ccccc13)C2)c1cnn2cc(Cc3ccccc3)ccc12 [Example 204, 6-benzyl-N-((aR)-6-(4-oxo-3,4-dihydrophthalazin-1-yl)spiro[3.3]heptan-2-yl)pyrazolo[1,5-a]pyridine-3-carboxamide]
24 | 2.01 to 5 | O=C(N[C@H]1CC2(C1)C[C@H](c1n[nH]c(=O)c3ccccc31)C2)c1cnn2cc(CCCN3CCOCC3)ccc12 (stereo partly drawn) [Example 191, 6-(3-morpholinopropyl)-N-((aR)-6-(4-oxo-3,4-dihydrophthalazin-1-yl)spiro[3.3]heptan-2-yl)pyrazolo[1,5-a]pyridine-3-carboxamide]
25 | 0.2 to 2 | [H][C@]1(c2n[nH]c(=O)c3ccccc32)C[C@]2(C[C@@H](NC(=O)c3cc4c(Cl)ccc(C)c4[nH]3)C2)C1 (stereo partly drawn) [Example 302, 4-chloro-7-methyl-N-((aR)-6-(4-oxo-3,4-dihydrophthalazin-1-yl)spiro[3.3]heptan-2-yl)-1H-indole-2-carboxamide]
26 | 0.2 to 2 | [2H]C([2H])([2H])n1cc(-c2ccc3c(c2)CCN3C(=O)NC2CC3(C2)CC(c2n[nH]c(=O)c4ccccc24)C3)cn1 [Example 239, 5-(1-(^2H3)methyl-1H-pyrazol-4-yl)-N-((aR)-6-(4-oxo-3,4-dihydrophthalazin-1-yl)spiro[3.3]heptan-2 yl)indoline-1-carboxamide]
27 | 2.01 to 5 | Cc1c(OCC(C)(C)O)ccc2c(C(=O)NC3CC4(C3)CC(c3n[nH]c(=O)c5ccccc35)C4)cnn12 [Example 112, 6-(2-hydroxy-2-methylpropoxy)-7-methyl-N-((aR)-6-(4-oxo-3,4-dihydrophthalazin-1-yl)spiro[3.3]heptan-2-yl)pyrazolo[1,5-a]pyridine-3-carboxamide]
28 | 5.1 to 15 | O=C(NC1CC2(C1)CC(c1n[nH]c(=O)c3ccccc13)C2)N1CCc2ccc(C(F)(F)F)cc21 [Example 259, N-((aR)-6-(4-oxo-3,4-dihydrophthalazin-1-yl)spiro[3.3]heptan-2-yl)-6-(trifluoromethyl)indoline-1-carboxamide]

Row | Structure (SMILES) | IC50 [nM]
29 | O=C(N[C@H]1CC2(C1)C[C@H](c1n[nH]c(=O)c3ccccc31)C2)c1cnn2cc(-n3cccn3)ccc12 (stereo partly drawn) [Example 177, N-((αR)-6-(4-oxo-3,4-dihydrophthalazin-1-yl)spiro[3.3]heptan-2-yl)-6-(1H-pyrazol-1-yl)pyrazolo[1,5-α]pyridine-3-carboxamide] | 0.2 to 2
